In brackets after ≈: the same amount, converted by molar mass. Like-named read-outs stand apart in the source and are kept apart here.
Tests used:
Ent. cloacae MA2646 = test: in vitro antibacterial activity, microtitration dilution (MIC), Ent. cloacae MA2646; type: cell-based; conditions: Enterobacter cloacae, read-out: minimum inhibiting concentration (MIC)
How it was run: (§1)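 Microtitration dilution method used to obtain minimum inhibitory concentrations, expressed as μg/mL.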

Esch. coli Vogel [1] = test: in vitro antibacterial activity, microtitration dilution (MIC), Esch. coli Vogel; type: cell-based; conditions: Escherichia coli, read-out: minimum inhibiting concentration (MIC)
How it was run: as §1

Klebs. pneumoniae MGH-2 = test: in vitro antibacterial activity, microtitration dilution (MIC), Klebs. pneumoniae MGH-2; type: cell-based; conditions: Klebsiella pneumoniae, MGH2, read-out: minimum inhibiting concentration (MIC)
How it was run: as §1

Prot. rettgeri M 1771 = test: in vitro antibacterial activity, microtitration dilution (MIC), Prot. rettgeri M 1771; type: cell-based; conditions: Providencia rettgeri, M1771, read-out: minimum inhibiting concentration (MIC)
How it was run: as §1

Pseud. aeruginosa UI-18 [2] = test: in vitro antibacterial activity, microtitration dilution (MIC), Pseud. aeruginosa UI-18; type: cell-based; conditions: Pseudomonas aeruginosa, UI18, read-out: minimum inhibiting concentration (MIC)
How it was run: as §1

Staph. aureus H 228 = test: in vitro antibacterial activity, microtitration dilution (MIC), Staph. aureus H 228; type: cell-based; conditions: Staphylococcus aureus, H228, read-out: minimum inhibiting concentration (MIC)
How it was run: as §1

Staph. aureus UC-76 = test: in vitro antibacterial activity, microtitration dilution (MIC), Staph. aureus UC-76; type: cell-based; conditions: Staphylococcus aureus, UC76, read-out: minimum inhibiting concentration (MIC)
How it was run: as §1

Strep. faecalis MGH-2 = test: in vitro antibacterial activity, microtitration dilution (MIC), Strep. faecalis MGH-2; type: cell-based; conditions: Enterococcus faecalis, MGH2, read-out: minimum inhibiting concentration (MIC)
How it was run: as §1

Strep. pheumoniae SV-1 [3] = test: in vitro antibacterial activity, microtitration dilution (MIC), Strep. pneumoniae SV-1; type: cell-based; conditions: Streptococcus pneumoniae, SV1, read-out: minimum inhibiting concentration (MIC)
How it was run: as §1

Strep. pyogenes C-203 [4] = test: in vitro antibacterial activity, microtitration dilution (MIC), Strep. pyogenes C-203; type: cell-based; conditions: Streptococcus pyogenes, C203, read-out: minimum inhibiting concentration (MIC)
How it was run: as §1

Esch. coli Vogel [5] = test: median protective dose in mice given lethal systemic infections, Esch. coli Vogel; type: in vivo; conditions: Escherichia coli, single dose at time of challenge, read-out: median protective dose (PD50)
How it was run: (§2)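 Mice given lethal systemic infections received single compound doses at time of challenge; PD50 (mg/kg) is the median protective dose.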

Pseud. aeruginosa UI-18 [6] = test: median protective dose in mice given lethal systemic infections, Pseud. aeruginosa UI-18; type: in vivo; conditions: Pseudomonas aeruginosa, single dose at time of challenge, read-out: median protective dose (PD50)
Protocol: (§3) The in vivo activity is obtained when the compounds are tested according to the procedure of Miller, et al (Proc. Soc. Exp. Biol. Med. 57, 261, 1944). The median protective dose (PD50) was determined in mice given lethal systemic infections. Single doses of compound were given at time of challenge.
(§4) By use of the above methods, the following minimum inhibiting concentration values (MICs in μg/mL), PD50 's in mg/kg, no effect phototoxicity dose in mg/kg and the cytotoxicity IC50 in μg/mL were obtained for representative enantiomers of the invention and compounds of the prior art as shown in the table.
(§5) The in vivo data as PD50 s are reported below the line of MICs for the same compound.

Strep. pheumoniae SV-1 [7] = test: median protective dose in mice given lethal systemic infections, Strep. pneumoniae SV-1; type: in vivo; conditions: Streptococcus pneumoniae, single dose at time of challenge, read-out: median protective dose (PD50)
Protocol: as §3, §4, §5

in vivo = test: in vivo; set-up: species or system mice; conditions: mouse, po
Protocol: The phototoxicity data is obtained using depilated mice. The compound was administered orally each day for four successive days, followed each day by 3 hours of UVA radiation. The mice were examined for any positive signs (redness, erythema) relative to control animals. The no effect dose and the 50% effect dose were determined. By use of the above methods, the following minimum inhibiting concentration values (MICs in μg/mL), PD50 's in mg/kg, no effect phototoxicity dose in mg/kg and the cytotoxicity IC50 in μg/mL were obtained for representative enantiomers of the invention and compounds of the prior art as shown in the table.

[8] = cytotoxicity, hamster V-79 cells, colony reduction; type: cell-based; conditions: 3 hours treatment, colonies counted after 5 days, read-out: Cytotox (cytotoxicity IC50)
How it was run: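 Cells were grown overnight, exposed to drug for 3 h, washed and replated. Colonies were counted after 5 days, and IC50 was taken as the concentration reducing colonies by 50% versus control.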

Strep. pyogenes C-203 [9] = test: median protective dose in mice given lethal systemic infections, Strep. pyogenes C-203; type: in vivo; conditions: Streptococcus pyogenes, single dose at time of challenge, read-out: median protective dose (PD50)
How it was run: as §2

Row | SMILES | MIC (Ent. cloacae MA2646) | MIC (Esch. coli Vogel [1]) | MIC (Klebs. pneumoniae MGH-2) | MIC (Prot. rettgeri M 1771) | MIC (Pseud. aeruginosa UI-18 [2]) | MIC (Staph. aureus H 228) | MIC (Staph. aureus UC-76) | MIC (Strep. faecalis MGH-2) | MIC (Strep. pheumoniae SV-1 [3]) | MIC (Strep. pyogenes C-203 [4]) | ED50 (Esch. coli Vogel [5]; PO) | ED50 (Esch. coli Vogel [5]; SC) | ED50 (Pseud. aeruginosa UI-18 [6]; UI18, PO) | ED50 (Pseud. aeruginosa UI-18 [6]; UI18, SC) | ED50 (Strep. pheumoniae SV-1 [7]; SV1, PO) | ED50 (Strep. pheumoniae SV-1 [7]; SV1, SC) | NOAEL at 96 h (in vivo) | CC50 at 3 h [8] | ED50 (Strep. pyogenes C-203 [9]; C203, PO) | ED50 (Strep. pyogenes C-203 [9]; C203, SC)
1 | C[C@H](N)[C@H]1CCN(c2nc3c(cc2F)c(=O)c(C(=O)O)cn3C2CC2)C1 [Example 6, 3S,1S-1-cyclopropyl-6-fluoro-7-[3-(1-aminoethyl)-1-pyrrolidinyl]-1,4-dihydro-4-oxo-1,8-naphthyridine-3-carboxylic acid] | 0.05 µg/mL (≈ 0.139 µM) | 0.05 µg/mL (≈ 0.139 µM) | 0.2 µg/mL (≈ 0.555 µM) | 0.4 µg/mL (≈ 1.11 µM) | 1.6 µg/mL (≈ 4.44 µM) | 0.2 µg/mL (≈ 0.555 µM) | 0.025 µg/mL (≈ 0.0694 µM) | 0.1 µg/mL (≈ 0.277 µM) | 0.05 µg/mL (≈ 0.139 µM) | 0.05 µg/mL (≈ 0.139 µM) | 8 mg/kg | 1 mg/kg | 96 mg/kg | 25 mg/kg | 28 mg/kg | 10 mg/kg | > 100 mg/kg | 77 µg/mL (≈ 214 µM) | – | –
2 | C[C@H]([C@@H]1CCN(c2nc3c(cc2F)c(=O)c(C(=O)O)cn3C2CC2)C1)N(C)C [Example 72, 3R,1R-1-cyclopropyl-7-[3-[1-(dimethylamino)ethyl]-1-pyrrolidinyl]-6-fluoro-1,4,-dihydro-4-oxo-1,8-naphthyridine-3-carboxylic acid] | 0.2 µg/mL (≈ 0.515 µM) | 0.1 µg/mL (≈ 0.257 µM) | 0.2 µg/mL (≈ 0.515 µM) | 0.8 µg/mL (≈ 2.06 µM) | 1.6 µg/mL (≈ 4.12 µM) | 0.025 µg/mL (≈ 0.0644 µM) | 0.025 µg/mL (≈ 0.0644 µM) | 0.1 µg/mL (≈ 0.257 µM) | 0.025 µg/mL (≈ 0.0644 µM) | 0.05 µg/mL (≈ 0.129 µM) | 1 mg/kg | 1 mg/kg | 17 mg/kg | 11 mg/kg | 2 mg/kg | 2 mg/kg | < 30 mg/kg | 120 µg/mL (≈ 309 µM) | 2 mg/kg | 2 mg/kg
3 | C[C@H](N)[C@@H]1CCN(c2nc3c(cc2F)c(=O)c(C(=O)O)cn3-c2ccc(F)cc2F)C1 [Example 43, 3R,1S-7-[3(1-aminoethyl)-1-pyrrolidinyl]-1-(2,4-difluorophenyl)-6-fluoro-1,4-dihydro-4-oxo-1,8-naphthyridine-3-carboxylic acid] | 0.2 µg/mL (≈ 0.463 µM) | 0.1 µg/mL (≈ 0.231 µM) | 0.2 µg/mL (≈ 0.463 µM) | 0.4 µg/mL (≈ 0.925 µM) | 0.8 µg/mL (≈ 1.85 µM) | 0.05 µg/mL (≈ 0.116 µM) | 0.006 µg/mL (≈ 0.0139 µM) | 0.025 µg/mL (≈ 0.0578 µM) | 0.006 µg/mL (≈ 0.0139 µM) | 0.006 µg/mL (≈ 0.0139 µM) | 3.5 mg/kg | 1 mg/kg | – | – | 3 mg/kg | 3 mg/kg | > 100 mg/kg | 280 µg/mL (≈ 648 µM) | 1 mg/kg | 1 mg/kg
